Reference: patent publication US9493451B2 (Bionomics Limited, priority 2011, dated 2016)

Molecular target: T1, Kv1.3 (Homo sapiens, UniProt P22001)
T1 construct: expressed in transfected cells; host or cells: CHO (Kv1.3/CHO)
Test: Electrophysiology: planar patch-clamp of Kv1.3 currents, IC50 from steady state current amplitude
Format: cell-based
Details: Kv1.3 electrophysiology, results according to Method D1, read-out: IC50 (Kv1.3 ephys steady state)
Summary of the method: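 Planar patch-clamp, whole-cell, Kv1.3/CHO cells; 500 ms pulses to +40 mV from −80 mV every 30 s; bath pH 7.4, pipette pH 7.2; 0.5% DMSO final. 5-6 cumulative concentrations on 2-3 cells to steady-state block; IC50 from Hill fit of normalised steady-state current at pulse end.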

T1 sequence (P22001 whole entry): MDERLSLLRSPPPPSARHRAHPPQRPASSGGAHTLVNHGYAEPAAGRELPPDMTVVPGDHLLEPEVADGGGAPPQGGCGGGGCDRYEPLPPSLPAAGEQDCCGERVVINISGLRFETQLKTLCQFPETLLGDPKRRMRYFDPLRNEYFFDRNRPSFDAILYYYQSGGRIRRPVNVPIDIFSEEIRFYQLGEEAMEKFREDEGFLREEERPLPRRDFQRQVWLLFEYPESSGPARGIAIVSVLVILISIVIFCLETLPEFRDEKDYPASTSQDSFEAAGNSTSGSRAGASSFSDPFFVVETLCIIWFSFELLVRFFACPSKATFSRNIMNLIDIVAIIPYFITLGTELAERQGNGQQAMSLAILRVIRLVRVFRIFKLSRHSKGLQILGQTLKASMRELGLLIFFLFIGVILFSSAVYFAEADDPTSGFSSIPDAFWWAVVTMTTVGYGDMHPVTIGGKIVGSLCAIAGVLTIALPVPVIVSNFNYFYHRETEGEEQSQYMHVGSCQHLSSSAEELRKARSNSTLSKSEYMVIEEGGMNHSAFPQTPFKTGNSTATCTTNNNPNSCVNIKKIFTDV

Structure (SMILES) | IC50 [nM]
CN1CC(C(c2ccc(OC(F)(F)F)cc2)N(Cc2cncc(F)c2)C(=O)C2CC2c2ccc(F)cc2)C1 (stereo not shown) [Example 163] | 200 to 1000
CN1CCC(C(c2cccc(C(F)(F)F)c2)N(Cc2ccc(F)cn2)C(=O)C2CC2c2ccc(F)cc2)CC1 (stereo not shown) [Example 147] | 200 to 1000
CCS(=O)(=O)c1ccc(C(C2CC2)N(Cc2cccnn2)C(=O)C2CC2c2ccc(F)cc2)cc1 (stereo not shown) [Example 231] | 50 to 200
CCC(c1ccc(S(=O)(=O)CC)cc1)N(Cc1cccnn1)C(=O)C1CC1c1ccc(F)cc1 (stereo not shown) [Example 118] | 1000 to 2000
CC(C)S(=O)(=O)c1ccc(C(C2CC2)N(Cc2ccc(F)cn2)C(=O)C2CC2c2ccc(F)cc2)cc1 (stereo not shown) [Example 238] | 50 to 200
N#Cc1cccc(C(C2CC2)N(Cc2ccc(C(F)(F)F)nc2)C(=O)CS(=O)(=O)c2ccc(F)cc2)c1 (stereo not shown) [Example 332] | 50 to 200
O=C(CS(=O)(=O)c1ccccc1F)N(Cc1ccc(C(F)(F)F)nc1)C(c1ccc(OC(F)F)cc1)C1CC1 (stereo not shown) [Example 299] | 50 to 200
CC(C)S(=O)(=O)c1ccc(C(C2CC2)N(Cc2cccnn2)C(=O)C2CC2c2ccc(F)cc2)cc1 (stereo not shown) [Example 237] | 50 to 200
CC(C)S(=O)(=O)c1cccc(C(C2CC2)N(Cc2ncccc2F)C(=O)C2CC2c2ccc(F)cc2)c1 (stereo not shown) [Example 245] | 200 to 1000
O=C(CS(=O)(=O)c1ccc(F)cc1)N(C1CCC(F)(F)CC1)C(c1ccc(OC(F)F)cc1)C1CC1 (stereo not shown) [Example 316] | 200 to 1000
CC(CC(=O)N(Cc1cccnn1)C(c1ccc(OC(F)F)cc1)C1CC1)c1ccc(F)cc1 (stereo not shown) [Example 262] | < 50
Cn1cc(CN(C(=O)C2CC2c2ccc(F)cc2)C(c2ccc(OC(F)F)cc2)C2CC2)cn1 (stereo not shown) [Example 190] | < 50
O=C(N(Cc1ccccn1)[C@H](c1ccc(OC(F)F)cc1)C1CC1)C1(S(=O)(=O)c2ccc(F)cc2)CC1 [Example 92, N-{cyclopropyl[4-(difluoromethoxy)phenyl]methyl}-1-[(4-fluorophenyl)sulfonyl]-N-(pyridin-2-ylmethyl)cyclopropanecarboxamide] | 200 to 1000
CC(C)(c1ccccc1)N(Cc1ccccn1)C(=O)CS(=O)(=O)c1ccc(F)cc1 [Example 101, 2-(4-Fluorophenylsulfonyl)-N-(2-phenylpropan-2-yl)-N-(pyridine-2-ylmethyl)acetamide] | 200 to 1000
CC(C)C(c1ccc(OC(F)F)cc1)N(Cc1cccnn1)C(=O)C1CC1c1ccc(F)cc1 (stereo not shown) [Example 114] | 50 to 200
CC(C)(C(=O)N(Cc1cccnn1)C(c1ccc(OC(F)F)cc1)C1CC1)S(=O)(=O)c1ccc(F)cc1 (stereo not shown) [Example 308] | 50 to 200
O=C(CS(=O)(=O)c1ccc(F)cc1)N(C1CCNCC1)C(c1ccc(OC(F)F)cc1)C1CC1 (stereo not shown) [Example 298] | 200 to 1000
CC(C)[C@@H](c1ccc(F)cc1)N(CCN1CCC(F)CC1)C(=O)C1(S(=O)(=O)c2ccc(F)cc2)CC1 (single isomer, unassigned) [Example 94] | 50 to 200
CN1CCC(C(c2ccc(OC(F)F)cc2)N(C(=O)C2CC2c2ccc(F)cc2)C2CCOCC2)CC1 (stereo not shown) [Example 140] | 1000 to 2000
Cc1ccc(CN(C(=O)CS(=O)(=O)c2ccccc2)C(c2ccc(OC(F)F)cc2)C2CC2)cn1 (stereo not shown) [Example 322] | 50 to 200
O=C(C1CC1c1cccc(C(F)(F)F)c1)N(Cc1cccnn1)C(c1ccc(OC(F)F)cc1)C1CC1 (stereo not shown) [Example 184] | 200 to 1000
O=C(CS(=O)(=O)c1ccccc1)N(Cc1cccnn1)C(c1ccc(OC(F)F)cc1)C1CC1 (stereo not shown) [Example 305] | 50 to 200

Structure (SMILES) | IC50 [nM]
O=C(CC1(c2ccc(F)cc2)CC1)N(Cc1ccccn1)[C@@H](c1ccc(Cl)cc1)C1CC1 (single isomer, unassigned) [Example 95, N-[(4-chlorophenyl)(cyclopropyl)methyl]-2-[1-(4-fluorophenyl)cyclopropyl]-N-(pyridin-2-ylmethyl)acetamide] | < 50
CCS(=O)(=O)c1cccc(C(C2CC2)N(Cc2cccnn2)C(=O)C2CC2c2ccc(F)cc2)c1 (stereo not shown) [Example 223] | 50 to 200
O=C(CS(=O)(=O)c1ccccc1)N(Cc1ncccc1F)C(c1ccc(OC(F)F)cc1)C1CC1 (stereo not shown) [Example 304] | 50 to 200
CC(c1ccc2c(c1)[S+]([O-])C(C)(C)O2)N(Cc1ccccn1)C(=O)CCc1cccc(C(F)(F)F)c1 (stereo not shown) [Example 63, N-[1-(2,2-dimethyl-3-oxido-1,3-benzoxathiol-5-yl)ethyl]-N-(pyridin-2-ylmethyl)-3-[3-(trifluoromethyl)phenyl]propanamide] | 1000 to 2000
Cc1cccc(CN(C(=O)CS(=O)(=O)c2ccc(F)cc2)C(c2ccc(OC(F)F)cc2)C2CC2)n1 (stereo not shown) [Example 320] | < 50
CCS(=O)(=O)c1cccc(C(C2CC2)N(Cc2ccc(F)cn2)C(=O)C2CC2c2ccc(F)c(F)c2)c1 (stereo not shown) [Example 197] | 50 to 200
CCS(=O)(=O)c1cccc(C(C2CC2)N(Cc2ccc(F)cn2)C(=O)C2CC2c2ccc(OC(F)F)cc2)c1 (stereo not shown) [Example 222] | 50 to 200
C[C@@H](CC(=O)N(Cc1ccccn1)C(c1ccc(Cl)cc1)C1CC1)c1ccc(F)cc1 (single isomer, unassigned) [Example 8] | < 50
CCC(c1ccc(S(C)(=O)=O)cc1)N(Cc1ccc(C(F)(F)F)nc1)C(=O)C1CC1c1ccc(F)cc1F (stereo not shown) [Example 129] | 50 to 200
CSc1cccc(CN(C(=O)C2CC2c2ccc(F)cc2)C(c2ccc(Cl)cc2)C2CC2)n1 (stereo not shown) [Example 254] | 50 to 200
O=C(CS(=O)(=O)c1cccc(C(F)(F)F)c1)N(Cc1cccc[n+]1[O-])C(c1ccc(Cl)cc1)C1CC1 (stereo not shown) [Example 292] | 200 to 1000
CN1CC(C(c2ccc(F)cc2)N(Cc2ncccc2F)C(=O)C2CC2c2ccc(F)cc2)C1 (stereo not shown) [Example 156] | 50 to 200
CN1CCC(C(c2cccc(C(F)(F)F)c2)N(Cc2ccc(F)cn2)C(=O)C2CC2c2ccc(F)cc2)CC1 (stereo not shown) [Example 146] | 200 to 1000
O=C(C1CC1c1ccc(F)cc1)N(Cc1cccnn1)C(c1ccc(F)cc1)C1CCOC1 (stereo not shown) [Example 173] | 50 to 200
CCS(=O)(=O)c1cccc(CN(C(=O)C2CC2c2ccc(F)cc2)C(c2ccc(Cl)cc2)C2CC2)n1 (stereo not shown) [Example 253] | < 50
CCS(=O)(=O)c1cccc(C(C2CC2)N(Cc2ccc(F)cn2)C(=O)C2CC2c2ccc(F)cc2F)c1 (stereo not shown) [Example 193] | 50 to 200
CCc1noc(C(C)N(Cc2ccccn2)C(=O)CC(C)c2ccc(F)cc2)n1 (stereo not shown) [Example 87] | 200 to 1000
O=C(CS(=O)(=O)c1cccc(C(F)(F)F)c1)N(Cc1ccccn1)C(c1ccc(Cl)cc1)C1CC1 (stereo not shown) [Example 293] | 50 to 200
CC(C)C(c1ccc(OC(F)F)cc1)N(Cc1ccc(F)cn1)C(=O)C1CC1c1ccc(F)cc1 (stereo not shown) [Example 111] | 50 to 200
CC(C)C(c1ccc(OC(F)F)cc1)N(Cc1ccc(F)cn1)C(=O)C1CC1c1ccc(F)cc1 (stereo not shown) [Example 110] | < 50
CC(CC(=O)N(Cc1ccc(C(F)(F)F)nc1)C(C)c1ccc2c(c1)CCC2)c1ccc(F)cc1 (single isomer, unassigned) [Compound 40, N-[1-(2,3-dihydro-1H-inden-5-yl)ethyl]-3-(4-fluorophenyl)-N-{[6-(trifluoromethyl)pyridin-3-yl]methyl}butanamide] | 50 to 200
